Laboratory results from PMC9574867, “Discovery and Characterization of Synthesized and FDA-Approved Inhibitors of Clostridial and Bacillary Collagenases” (Journal of Medicinal Chemistry, 2022).
Entries after “also recorded” stand apart in the source; their conditions may differ.

System: MDCK II cells challenged with B. cereus AH187 supernatant
Format: cell-based, canine

Row | Compound | TEER of MDCK II cells challenged with supernatant
1 | O=P(O)(O)c1nc2ccc(Br)cc2nc1P(=O)(O)O [Compound 10, (6-Bromoquinoxaline-2,3-diyl)bis(phosphonic acid)] | retain the TEER of the challenged cells
2 | Cc1ccc2nc(P(=O)(O)O)c(P(=O)(O)O)nc2c1 [Compound 11, (6-Methylquinoxaline-2,3-diyl)bis(phosphonic acid)] | maintained the TEER of MDCK II cells challenged with B. cereus supernatant
3 | O=P(O)(O)c1nc2cc(Cl)c(Cl)cc2nc1P(=O)(O)O [Compound 13, (6,7-Dichloroquinoxaline-2,3-diyl)bis(phosphonic acid)] | retain the TEER of the challenged cells; also recorded: maintained the TEER of MDCK II cells challenged with B. cereus supernatant
4 | O=P(O)(O)c1nc2ccc(-c3ccc(Cl)cc3)cc2nc1P(=O)(O)O [Compound 15, (6-(4-Chlorophenyl)quinoxaline-2,3-diyl)bis(phosphonic acid)] | maintained the TEER of MDCK II cells challenged with B. cereus supernatant
5 | O=P([O-])(O)C(Sc1ccc(Cl)cc1)P(=O)([O-])O.[Na+].[Na+] [Tiludronate disodium, reference compound] | maintained the TEER of MDCK II cells challenged with B. cereus supernatant
